The target of test [1] is T1, histamine H2 -receptors (Rattus norvegicus, UniProt P25102).
T1 construct: histamine-stimulated secretion of gastric acid from the lumen-perfused stomachs of rats anaesthetised with urethane; from tissue; host or cells: lumen-perfused stomach of urethane-anaesthetised female Sprague-Dawley rats (in vivo)
In words: lumen-perfused rat test: inhibition of histamine-stimulated secretion of gastric acid. The test is classed as in vivo. As to conditions: iv, lumen-perfused stomachs of rats anaesthetised with urethane, read-out: ED50 (for inhibiting sub-maximal acid secretion by 50%). From the text: These are actions of histamine which, according to Ash and Schild, Brit. J. Pharmac. Chemother. 27 247 (1966), are not mediated by histamine H1 -receptors.
Inhibition of histamine-stimulated secretion of gastric acid can be measured by using a lumen-perfused stomachs of rats anaesthetised with urethane using the following modification of the method of Ghosh and Schild, Brit. J. Pharmac. Chemother. 13 54 (1958):
Female Sprague-Dawley rats (160-200 g) are starved overnight and anaesthetised with urethane given intraperitoneally in one dose (200 mg). The trachea and jugular veins are both cannulated and a mid-line incision is made in the abdomen exposing the stomach which is cleared from connective tissue. […] The effluent is passed over a micro-flow pH electrode and recorded by a pH meter fed to an anti-log unit and flat-bed recorder. The basal output of acid secretion from the stomach is monitored by measurement of the pH of the perfusion effluent. A sub-maximal dose of histamine is continuously infused into the jugular vein and produces a stable plateau of acid secretion and the pH of the perfusion effluent is determined when this condition is obtained. […] The difference in acid secretion between basal output and the histamine stimulated plateau level and the reduction of acid secretion caused by the test compound are calculated from the difference in pH of the perfusion effluent. […]

The target in test [2] is T2, histamine H2 -receptors (Cavia porcellus, UniProt P47747).
T2 construct: a spontaneously beating isolated portion of the guinea pig right atrium; from tissue; host or cells: isolated guinea pig right atrium
T2 sequence (P47747 whole entry): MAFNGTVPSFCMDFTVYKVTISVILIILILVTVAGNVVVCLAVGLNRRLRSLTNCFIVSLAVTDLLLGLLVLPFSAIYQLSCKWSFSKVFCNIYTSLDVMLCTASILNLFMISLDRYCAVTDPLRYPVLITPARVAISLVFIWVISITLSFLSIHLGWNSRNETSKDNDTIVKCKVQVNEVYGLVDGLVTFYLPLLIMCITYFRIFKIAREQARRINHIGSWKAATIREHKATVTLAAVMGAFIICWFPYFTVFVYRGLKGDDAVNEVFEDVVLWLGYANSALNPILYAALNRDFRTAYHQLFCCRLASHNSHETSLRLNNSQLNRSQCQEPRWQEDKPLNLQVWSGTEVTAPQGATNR
Briefly: guinea pig atrium test: inhibition of histamine-induced tachycardia in isolated right atrium. The format is biochemical. As to conditions: histamine-induced rate increase, 60 min contact, read-out: pA2 (converted). The method, then:
In the guinea pig atrium test a spontaneously beating isolated portion of the guinea pig right atrium is secured under tension (300 mg) between an anchorage and a transducer in a 15 ml tissue bath and immersed in McEwens solution with constant aeration at a temperature of 37° C. The output from the transducer is amplified. Output is in turn fed to a flat bed recorder. Measured amounts of histamine are added to the tissue bath so that the histamine concentration increases step-wise until the rate of beating reaches a maximum. The tissue bath is washed out and filled with fresh McEwens solution containing compound under test. The solution is left in contact with the tissue for 60 min. and measured amounts of histamine are added again until a maximum rate is recorded. The assay is repeated with increasing concentrations of test compound and the dose of histamine giving 50% of maximum rate is noted. A dose ratio (DR) was calculated by comparing the concentrations of histamine required to produce 50% maximum response in the absence and in the presence of the antagonist. A plot of Log DR-1 against LOG D (the concentration of compound under test) is made and the point of intersection with the Log (DR-1) ordinate is taken as the measure of the activity (pA2 value).

We go through two molecules from patent US4574126A, “Pyridine derivatives histamine H2 -antagonists” (Smith Kline & French Laboratories Limited, priority 1982, dated 1986).

By ED50 is commonly meant the dose that gives a 50% effect, or the effect in half of the subjects.

T1 sequence (P25102 whole entry, the tested form may be a part): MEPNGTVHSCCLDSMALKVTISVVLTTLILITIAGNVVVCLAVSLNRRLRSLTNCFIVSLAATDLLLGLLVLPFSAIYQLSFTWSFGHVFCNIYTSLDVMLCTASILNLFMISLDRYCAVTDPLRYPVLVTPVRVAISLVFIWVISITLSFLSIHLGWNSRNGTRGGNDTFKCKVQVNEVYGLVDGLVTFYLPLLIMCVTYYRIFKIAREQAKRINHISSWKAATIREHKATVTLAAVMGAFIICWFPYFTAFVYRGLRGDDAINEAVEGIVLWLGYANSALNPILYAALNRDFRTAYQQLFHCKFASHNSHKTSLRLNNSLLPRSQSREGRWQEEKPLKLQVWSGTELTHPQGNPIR

On to `CNC(=NCCSCc1cc(CN(C)C)ccn1)NC#N` [Example 1, N-cyano-N'-methyl-N"-[2-(4-dimethylaminomethyl-2-pyridylmethylthio)ethyl]-guanidine], for which, on histamine H2 -receptors [1], the ED50 is less than 0.1 µmol/kg. Also, on histamine H2 -receptors [2], the Kb was less than 100 nM.
For `CNC(=C[N+](=O)[O-])NCCSCc1cc(CN(C)C)ccn1` [Example 2, 1-nitro-2-methylamino-2-[2-(4-dimethylaminomethyl-2-pyridylmethylthio)ethylamino]-ethylene], in that order: less than 0.1 µmol/kg and less than 100 nM.
